According to patent publication US6514997B2, “Antipicornaviral compounds and compositions, their pharmaceutical uses, and materials for their synthesis” (Agouron Pharmaceuticals, Inc., priority 1999, dated 2003):
Read-outs that look alike come from different tables or passages of the source.

Assays:
[1] = target: T1, Recombinant rhinovirus 3C protease, serotype 14 (Human rhinovirus 14, UniProt P03303); test: Inhibition of rhinovirus 3C protease (FRET assay, kobs/[I]), serotype 14; type: biochemical; conditions: pH 7.6; HRV-14 3C protease; read-out: kobs/[I] (3C protease inhibition activity)
T1 construct: Recombinant rhinovirus 3C proteases; made in house
Procedure, shortened: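 kobs/[I] values came from progress curves of reactions started by adding 50-100 nM protease to buffer (50 mM tris pH 7.6, 1 mM EDTA, 2% DMSO) containing compound and ~1 μM quenched DABCYL-EDANS substrate. Rising EDANS fluorescence reported cleavage.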

HRV-14 = test: Antirhinoviral H1-HeLa cell culture assay (XTT cell protection, EC50), HRV-14; type: cell-based, human rhinovirus (HRV) serotype-14 in H1-HeLa cells; conditions: Rhinovirus B, HRV14, H1-HeLa
Procedure, shortened: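 XTT dye reduction (450/650 nm) measured survival of H1-HeLa cells two days after HRV-14 infection at m.o.i. 0.13 in the presence of compound, giving EC50. The therapeutic index is CC50 divided by EC50.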

[2] = tested on: strains of human rhinovirus (HRV); test: Antirhinoviral H1-HeLa cell culture assay (XTT cell protection, EC50), other HRV strains; type: cell-based, human rhinovirus in H1-HeLa cells; conditions: read-out: EC50
Procedure, shortened: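 Protection of H1-HeLa cells from rhinovirus was scored two days post-infection via XTT dye reduction read at 450/650 nm, alongside mock-infected cells for toxicity. CC50/EC50 gives the therapeutic index.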

[3] = Cytotoxicity (CC50) in mock-infected H1-HeLa cells, XTT dye reduction; type: cell-based, human; conditions: human, H1-HeLa cells, mock-infected; HRV-14
Procedure, shortened: (§1)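 XTT dye reduction (formazan, 450/650 nm) in H1-HeLa cells, mock-infected, gave CC50.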

H1-HeLa cells = test: as above; type: cell-based, human
Procedure, shortened: as §1

coxsackievirus B2 (CVB2) = test: Antiviral cell culture assay (EC50), coxsackievirus B2; type: cell-based; conditions: Enterovirus B
coxsackievirus B5 (CVB5) = test: Antiviral cell culture assay (EC50), coxsackievirus B5; type: cell-based; conditions: Enterovirus B
echovirus 9 (ECHO-9) = test: Antiviral cell culture assay (EC50), echovirus 9; type: cell-based; conditions: Enterovirus B; ECHO9
[4] = Cytotoxicity (CC50), cell line not stated; type: cell-based

T1 sequence (P03303 1538-1719): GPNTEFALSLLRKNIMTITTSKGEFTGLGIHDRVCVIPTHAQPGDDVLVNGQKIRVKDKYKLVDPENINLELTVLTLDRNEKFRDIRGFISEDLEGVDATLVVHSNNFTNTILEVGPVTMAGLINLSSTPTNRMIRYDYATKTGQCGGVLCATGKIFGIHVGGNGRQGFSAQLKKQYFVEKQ

CC[C@@H](C(=O)N[C@H](/C=C/C(=O)OC1CCC1)C[C@@H]1CCNC1=O)n1cccc(NC(=O)c2cc(C)on2)c1=O [Compound 59, trans-(2′S,3′″″S,4S)-4-[2′-(3″-{[1′″-(5″″-Methylisoxazol-3″″-yl)methanoyl]amino}-2′″oxo-2′″H-pyridin-1′″-yl)butanoylamino]-5-(2′″″-oxopyrrolidin-3′″″-yl)pent-2-enoic Acid Cyclobutyl Ester] gave a kinact/KI [1] of 170000 M⁻¹ s⁻¹, an EC50 (HRV-14) of 20 nM and an EC50 ([2]; H1-HeLa, HRV-1A) of 84 nM. For the same molecule, the EC50 ([2]; H1-HeLa, HRV-2) was 49 nM, the EC50 ([2]; H1-HeLa, HRV-23) was 37 nM and the EC50 ([2]; Human rhinovirus sp., H1-HeLa, HRV-Hanks) was 83 nM. The EC50 ([2]; Human rhinovirus sp., HRV3, H1-HeLa, HRV-3) was 33 nM, the EC50 ([2]; Human rhinovirus sp., HRV9, H1-HeLa, HRV-9) was 70 nM and the EC50 ([2]; Human rhinovirus sp., HRV10, H1-HeLa, HRV-10) was 58 nM. It also gave an EC50 ([2]; Human rhinovirus sp., HRV11, H1-HeLa, HRV-11) of 14 nM, an EC50 ([2]; Human rhinovirus sp., HRV13, H1-HeLa, HRV-13) of 12 nM and an EC50 ([2]; Human rhinovirus sp., HRV16, H1-HeLa, HRV-16) of 105 nM. It also gave an EC50 ([2]; Human rhinovirus sp., HRV19, H1-HeLa, HRV-19) of 44 nM, an EC50 ([2]; Human rhinovirus sp., HRV25, H1-HeLa, HRV-25) of 42 nM and an EC50 ([2]; Human rhinovirus sp., HRV39, H1-HeLa, HRV-39) of 122 nM. It also gave an EC50 ([2]; Human rhinovirus sp., HRV78, H1-HeLa, HRV-78) of 73 nM, a CC50 at 2 days [3] of over 10000 nM and a CC50 (H1-HeLa cells; HRV-1A) of over 10000 nM. It also gave a CC50 (H1-HeLa cells; HRV-2) of over 10000 nM, a CC50 (H1-HeLa cells; HRV-3) of over 10000 nM and a CC50 (H1-HeLa cells; HRV-9) of over 10000 nM. For the same molecule, the CC50 (H1-HeLa cells; HRV-10) was over 10000 nM, the CC50 (H1-HeLa cells; HRV-11) was over 10000 nM and the CC50 (H1-HeLa cells; HRV-13) was over 10000 nM. It also gave a CC50 (H1-HeLa cells; HRV-16) of over 10000 nM, a CC50 (H1-HeLa cells; HRV-19) of over 10000 nM and a CC50 (H1-HeLa cells; HRV-23) of over 10000 nM. The CC50 (H1-HeLa cells; HRV-25) was over 10000 nM, the CC50 (H1-HeLa cells; HRV-39) was over 10000 nM and the CC50 (H1-HeLa cells; HRV-78) was over 10000 nM. The CC50 (H1-HeLa cells; HRV-Hanks) was over 10000 nM, the EC50 (coxsackievirus B2 (CVB2)) was 50 nM and the EC50 (coxsackievirus B5 (CVB5)) was 40 nM. It also gave an EC50 (echovirus 9 (ECHO-9)) of 40 nM, a CC50 ([4]; CVB2) of over 10000 nM and a CC50 ([4]; CVB5) of over 10000 nM. For the same molecule, the CC50 ([4]; ECHO9) was over 10000 nM.
